Data on one molecule can be found in patent US20090012051A1, “EXTERNAL PREPARATION” (KYOWA HAKKO KOGYO CO., LTD., priority 2005, published 2009).

This data set can be described thus: Solubility of Compound (I) in solvent components. Type of data set: physicochemical.

In brackets after ≈: the same amount, converted by molar mass.

As a reminder, the solubility is the concentration that dissolves in the medium under given conditions.

Take `COc1ccc(C(=O)Cc2c(Cl)cncc2Cl)c2c1OC1(CCCC1)O2` [Compound (I), 7-[2-(3,5-dichloro-4-pyridyl)-1-oxoethyl]-4-methoxy-spiro[1,3-benzodioxol-2,1′-cyclopentane]]: the solubility is around 10 mg/mL (≈ 25.4 mM) (oil or lipid, in isopropyl myristate); around 100 mg/mL (≈ 254 mM) (organic solvent or mixture, in benzyl alcohol); around 33 mg/mL (≈ 83.7 mM) (organic solvent or mixture, in propylene carbonate); around 3 mg/mL (≈ 7.61 mM) (organic solvent or mixture, in propylene glycol).
